Results as given in paper PMC10065799, “High-throughput profiling of sequence recognition by tyrosine kinases and SH2 domains using bacterial peptide display” (eLife, 2023).
Square brackets hold non-standard residues; d marks the D form. pY = N[C@@H](Cc1ccc(OP(=O)(O)O)cc1)C(=O)O

Assays:
[1] = target: c-Src kinase domain (Homo sapiens, UniProt P12931); test: pTyr-Var library bacterial peptide display kinase screen (enrichment scores); format: biochemical; conditions: sheet "Src";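 also: log2 fold change in enrichment of variant over reference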
[2] = target: T1, c-Abl kinase domain (Mus musculus, UniProt P00520); test: as above; format: biochemical;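 also: log2 fold change in enrichment of variant over reference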
T1 sequence (P00520 242-493 limits assumed): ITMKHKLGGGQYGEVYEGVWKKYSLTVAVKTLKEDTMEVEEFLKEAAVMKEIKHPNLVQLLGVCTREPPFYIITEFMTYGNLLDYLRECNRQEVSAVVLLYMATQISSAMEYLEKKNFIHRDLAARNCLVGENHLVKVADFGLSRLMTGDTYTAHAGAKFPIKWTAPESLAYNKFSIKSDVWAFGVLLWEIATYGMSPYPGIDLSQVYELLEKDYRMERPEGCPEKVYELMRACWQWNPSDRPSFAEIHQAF

[3] = tested on: Fer kinase domain; test: as above; format: biochemical, mouse; conditions: sheet "Fer";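 also: log2 fold change in enrichment of variant over reference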
[4] = tested on: EPHB1 kinase domain; test: as above; format: biochemical, human; conditions: for Screen: sheet EPHB1, effect of the variant peptide relative to its reference peptide in the pTyr-Var library screen (enrichment scores); for Screen (variant relative to reference peptide, measured in the pTyr-Var library screen): sheet "EPHB1", variant seq vs reference seq, bacterial peptide display enrichment
[5] = tested on: EPHB2 kinase domain; test: as above; format: biochemical, human; conditions: sheet EPHB2;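 also: log2 fold change in enrichment of variant over reference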
[6] = target: human c-Src SH2 domain (residues 143-250) (human, UniProt P12931-1 143-250, biotin on the Avi tag (co-expression with the biotin ligase BirA)); test: fluorescence polarisation; competition: unlabeled phosphopeptide serially diluted against 30 nM fluorescent peptide and 240 nM (1.5 x KD) c-Src SH2; same buffer; 25 °C; cubic binding equation; conditions: both partners purified
[7] = effect of the variant peptide relative to its reference peptide in the pTyr-Var library screen
[8] = fig5-data2, sheet "Abl", Screen for the variant/reference peptide pair, pTyr-Var library
[9] = value of the variant peptide against its reference peptide in the pTyr-Var library screen with Fer
[10] = effect of variant peptide relative to its reference peptide in the pTyr-Var library screen (enrichment scores)
[11] = variant peptide versus its reference peptide in the pTyr-Var library screen
[12] = variant peptide relative to its reference peptide, pTyr-Var library screen enrichment
[13] = effect of the variant relative to its reference peptide in the pTyr-Var library screen

HNVPIYEGFGL [ACTA1_Y168_A172G_YF]
Screen [1, 7]: -0.3085
Screen [2, 8]: -0.8833
Screen [3, 9]: -0.2533
Screen [4]: 0.1073
Screen [5, 10]: 0.031

EELLRYAIVTP [POC5_Y37_H36R]
Screen [3, 9]: -3.509
Screen [4]: -2.287

QTPVLYTMLDH [MPZ_Y220_A221T]
Screen [1, 7]: -0.5854
Screen [3, 9]: 0.203
Screen [4]: -1.287
Screen [5, 10]: -2.33

QNTVDYFDLFG [PTPN11_Y62_G60V_YF]
Screen [1, 11]: -1.317
Screen [4]: -3.39
Screen [5, 10]: -4.099

NKFTTYLPWLP [C9orf24_Y126_R129W_YF]
Screen [1, 7]: 3.427
Screen [3, 9]: 4.402
Screen [4]: 3.061
Screen [5, 10]: 3.885

PLSGEYFTLQI [TP53_Y327_D324S]
Screen [1, 11]: -0.1322
Screen ([2]; sheet "Abl", effect of variant peptide relative to its reference peptide in pTyr-Var library screen (enrichment)): -0.7361
Screen (variant relative to reference peptide, measured in the pTyr-Var library screen) [4]: 0.4408

PLEGEYFTLQI [TP53_Y327_D324E]
Screen [1, 11]: 0.9967
Screen [3, 12]: 1.311
Screen (variant relative to reference peptide, measured in the pTyr-Var library screen) [4]: 1.418
Screen [5, 13]: 1.812

HNMPIYEGFAL [ACTA1_Y168_V165M_YF]
Screen [1, 7]: 0.3248
Screen [2, 8]: -1.455
Screen [3, 9]: 0.2696
Screen [4]: 0.09959
Screen [5, 10]: 0.1725

LTTEAYEWEPC [ELMOD3_Y61_R66C]
Screen [1, 7]: 2.164
Screen [3, 9]: 1.258
Screen [4]: 1.595
Screen [5, 10]: 1.193

NNHGNYIVHLG [ETFDH_Y172_R175H]
Screen [4]: 2.943
Screen [5, 10]: 1.999

INPIIYAFVVE [CCR5_Y297_G301V]
Screen [1, 7]: -0.9018
Screen [3, 9]: -1.367
Screen [4]: -1.262
Screen [5, 10]: -1.294

HKNNNYEPSLF [BRCA2_Y57_N60S]
Screen [4]: -1.049

HEEDNYIEMIP [NWD2_Y566_L569M]
Screen [4]: -0.841
Screen [5, 10]: -0.6493

QPSALYEDRFL [ASS1_Y83_S79P_YF]
Screen [1, 7]: -0.4742
Screen [3, 9]: 0.05915
Screen [4]: -0.4777
Screen [5, 10]: 0.0303

VVQGIYGFHHH [UFSP2_Y285_Y290H_YF]
Screen [1, 11]: 0.2882
Screen [3, 12]: -0.4799
Screen (variant relative to reference peptide, measured in the pTyr-Var library screen) [4]: -1.444
Screen [5, 13]: -2.017

VDTGVYAVPPP [BCAR1_Y410_S407T]
Screen [1, 7]: -0.01564
Screen [3, 9]: 0.101
Screen [4]: 0.1474
Screen [5, 10]: 0.0652

PFTRNYFVWAV [CYBA_Y87_R90W_YF]
Screen [2, 8]: 0.4523
Screen [3, 9]: 2.258
Screen [4]: 3.209
Screen [5, 10]: 2.204

LFMGDYVGRGF [PPP2CA_Y86_D88G_YF]
Screen [1, 11]: 1.98
Screen [4]: 1.681

NVVQEYERVII [NPHS2_Y131_K126N]
Screen [3, 9]: 0.1682
Screen [4]: -0.6061
Screen [5, 10]: -0.3645

LKDEDYLKDTV [HAUS3_Y582_I586T]
Screen [4]: 0.8437
Screen [5, 10]: 0.5716

LDLPGYCLLRE [CCDC116_Y291_P293L]
Screen [2, 8]: -2.162
Screen [4]: 0.4195

GRKTLYSFFSP [UNG_Y8_Q4R]
Screen [1, 11]: -1.198
Screen [3, 12]: -1.21
Screen (variant relative to reference peptide, measured in the pTyr-Var library screen) [4]: -1.828
Screen [5, 13]: -1.763

ISSLLYELLEE [TRPC6_Y896_R895L]
Screen [1, 11]: 3.086
Screen [3, 12]: 3.789
Screen (variant relative to reference peptide, measured in the pTyr-Var library screen) [4]: 3.527
Screen [5, 13]: 3.042

NREGVYTDFAP [TGFBI_Y537_V539D]
Screen [1, 11]: -0.2611
Screen [3, 12]: -1.802
Screen (variant relative to reference peptide, measured in the pTyr-Var library screen) [4]: -2.047
Screen [5, 13]: -1.696

HLVLNYGVCFC [JAK2_Y613_V617F]
Screen [2, 8]: 1.962
Screen [4]: 0.008865
Screen [5, 10]: 0.8396

DGPVNYEEFVQ [CALM2_Y139_Q136P]
Screen [4]: -0.2324

ENGPFYASFPP [GDAP2_Y488_T489A_YF]
Screen [1, 7]: 0.1608
Screen [3, 9]: 0.7376
Screen [4]: 1.693
Screen [5, 10]: 2.037

SEHLIYLEFKS [RASGRP1_Y215_T214I]
Screen [1, 11]: 0.01051
Screen [2, 8]: 0.2716
Screen [4]: 0.7598

NHQFDYTFHWT [CSNK1A1_Y294_D297H_YF]
Screen [3, 9]: 3.7
Screen [4]: 1.13

LNGDRYFKGIV [DCX_Y64_R59L]
Screen [2, 8]: 0.06367
Screen [3, 9]: 2.021
Screen [4]: 2.112
Screen [5, 10]: 1.457

ADAGMYGVLPW [PLP1_Y207_R205G]
Screen [1, 11]: -0.01805
Screen [3, 9]: 1.986
Screen [4]: 0.87
Screen [5, 10]: 1.359

KQQEIYQEVTQ [CD209_Y239_L242V]
Screen [1, 7]: -0.1121
Screen [3, 9]: 1.048
Screen [4]: 0.2667
Screen [5, 10]: 0.564

LHQSTYQCFDV [SLC7A14_Y693_R695C_YF]
Screen [1, 11]: 0.927
Screen [3, 12]: 1.307
Screen (variant relative to reference peptide, measured in the pTyr-Var library screen) [4]: 1.159

FRSSLYSLMET [MYO5C_Y633_L634S]
Screen [1, 11]: 2.978
Screen [3, 9]: 3.791
Screen [4]: 2.366
Screen [5, 10]: 1.684

QDEHGYISLCF [HSPB1_Y133_R136L]
Screen [4]: 1.02

KSFDMYSGDVM [FAM3D_Y122_A118S]
Screen [4]: 0.345

RQSTLYSFFPT [MSH6_Y8_K13T]
Screen [1, 7]: -0.09567
Screen [3, 9]: 1.758
Screen [4]: -0.1515
Screen [5, 10]: 0.1224

B1: CBS_Y308 phosphopeptide Ac-QVEGIG(pY)DFIPTG-NH2 (peptide)
peptide: Ac-QVEGIG[pY]DFIPTG-NH2
SMILES: CC[C@H](C)[C@H](NC(=O)CNC(=O)[C@H](CCC(=O)O)NC(=O)[C@@H](NC(=O)[C@H](CCC(N)=O)NC(C)=O)C(C)C)C(=O)NCC(=O)N[C@@H](Cc1ccc(OP(=O)(O)O)cc1)C(=O)N[C@@H](CC(=O)O)C(=O)N[C@@H](Cc1ccccc1)C(=O)N[C@H](C(=O)N1CCC[C@H]1C(=O)N[C@H](C(=O)NCC(N)=O)[C@@H](C)O)[C@@H](C)CC
notes: source: synthetic peptide (synthesized in-house, RP-HPLC purified)
binding result [6]: binds

B2: CBS_Y308_G307S phosphopeptide Ac-QVEGIS(pY)DFIPTG-NH2 (peptide)
peptide: Ac-QVEGIS[pY]DFIPTG-NH2
SMILES: CC[C@H](C)[C@H](NC(=O)CNC(=O)[C@H](CCC(=O)O)NC(=O)[C@@H](NC(=O)[C@H](CCC(N)=O)NC(C)=O)C(C)C)C(=O)N[C@@H](CO)C(=O)N[C@@H](Cc1ccc(OP(=O)(O)O)cc1)C(=O)N[C@@H](CC(=O)O)C(=O)N[C@@H](Cc1ccccc1)C(=O)N[C@H](C(=O)N1CCC[C@H]1C(=O)N[C@H](C(=O)NCC(N)=O)[C@@H](C)O)[C@@H](C)CC
notes: as for B1
binding result [6]: binds
